Measured values taken from patent US12091410B2, “Heterocyclic compound” (Takeda Pharmaceutical Company Limited, priority 2018, dated 2024).

Molecular target: T1, human orexin type 2 receptor (Homo sapiens, UniProt O43614)
T1 construct: expressed in transfected cells
T1 sequence (O43614 1-444): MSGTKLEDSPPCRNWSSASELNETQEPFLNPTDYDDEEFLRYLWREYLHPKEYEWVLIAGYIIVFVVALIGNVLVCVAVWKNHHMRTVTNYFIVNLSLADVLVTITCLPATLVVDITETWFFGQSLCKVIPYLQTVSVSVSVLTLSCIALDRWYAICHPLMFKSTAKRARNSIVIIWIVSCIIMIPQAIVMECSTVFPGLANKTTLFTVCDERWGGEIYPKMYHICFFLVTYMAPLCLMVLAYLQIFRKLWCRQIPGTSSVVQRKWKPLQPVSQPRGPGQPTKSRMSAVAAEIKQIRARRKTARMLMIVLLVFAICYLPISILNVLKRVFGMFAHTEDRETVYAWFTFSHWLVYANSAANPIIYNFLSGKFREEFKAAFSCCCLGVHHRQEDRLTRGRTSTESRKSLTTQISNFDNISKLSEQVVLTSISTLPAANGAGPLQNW
Test: Measurement of orexin type 2 receptor agonist activity (calcium fluorescence, Fluo-4 AM, CHO cells forcibly expressing human OX2 receptor)
Type: cell-based
Conditions: test compound 3 μM, DMSO = 0%, orexin A (human) 10 nM = 100%
Description: To obtain a cell clone stably expressing human orexin type 2 receptor, human orexin type 2 receptor cDNA was inserted into pcDNA3.1(+) plasmid vector (Invitrogen), and a plasmid DNA for expression of human orexin type 2 receptor (pcDNA3.1(+)/hOX2R) was cloned. The plasmid DNA was introduced into CHO-dhfr cell by an electroporation method, and human orexin type 2 receptor expressing clone cells were obtained by limiting dilution method by using G418 drug resistance as a selection marker.
CHO cells forcibly expressing human OX2 receptor were seeded in each well of 384 well black transparent bottom plate (BD Falcon) at 7,500 cells/well, and cultured for one day in a 5% CO2 incubator at 37° C. After removal of the medium in the cell plate, assay buffer A containing a calcium indicator (HBSS (Thermo Fisher Scientific), 20 mM HEPES (Thermo Fisher Scientific), 0.1% BSA (Sigma-Aldrich), 2.5 μg/mL Fluo-4 AM (DOJINDO Chemical), 0.08% Pluronic F127 (DOJINDO Chemical), 1.25 mM probenecid (DOJINDO Chemical)) was added at 30 μL/well. The plate was stood for 30 min in a 5% CO2 incubator at 37° C., and further stood at room temperature for 30 min. A test compound prepared by diluting with assay buffer B (HBSS, 20 mM HEPES, 0.1% BSA) was added at 10 μL/well, and the fluorescence value was measured by FDSSpCELL (Hamamatsu Photonics K. K.) every one sec for 1 min, and thereafter every two sec for 1 min 40 sec. The activity (%) of the test compound was calculated assuming that variation in the fluorescence value when DMSO was added instead of the test compound was 0%, and variation in the fluorescence value when orexin A (human) (PEPTIDE INSTITUTE, INC.) was added at the final concentration of 10 nM was 100%.

Compound	OX2R agonist activity (3 μM, %)
CC(C)c1cc2n(n1)[C@@H](COC1CCN(c3ncc(F)cn3)CC1)[C@@H](NS(C)(=O)=O)CC2 (relative stereo) [Example 24, rel-N-[(6S,7R)-7-({[1-(5-fluoropyrimidin-2-yl)piperidin-4-yl]oxy}methyl)-2-(propan-2-yl)-4,5,6,7-tetrahydropyrazolo[1,5-a]pyridin-6-yl]methanesulfonamide]	111%
Cc1cn2c(n1)C(COC1CCN(c3ncc(F)cn3)CC1)C(NC(=O)[C@@H]1CCCO1)CC2 (stereo in doubt) [Example 63, (2S)—N-[(7S*,8S*)-8-({[1-(5-fluoropyrimidin-2-yl)piperidin-4-yl]oxy}methyl)-2-methyl-5,6,7,8-tetrahydroimidazo[1,2-a]pyridin-7-yl]oxolane-2-carboxamide]	92%
Cc1cn2c(n1)[C@@H](Cc1cccc(-c3cccc(F)c3)c1)[C@@H](NS(C)(=O)=O)CC2 (relative stereo) [Example 57, rel-N-{(7S,8S)-8-[(3′-fluoro[1,1′-biphenyl]-3-yl)methyl]-2-methyl-5,6,7,8-tetrahydroimidazo[1,2-a]pyridin-7-yl}methanesulfonamide]	94%
Cc1nn2c(c1C)CC[C@H](NS(C)(=O)=O)[C@@H]2COC1CCN(c2ncc(F)cn2)CC1 (racemic) [Example 12, rac-N-[(6S,7R)-7-({[1-(5-fluoropyrimidin-2-yl)piperidin-4-yl]oxy}methyl)-2,3-dimethyl-4,5,6,7-tetrahydropyrazolo[1,5-a]pyridin-6-yl]methanesulfonamide]	102%
Cc1nc2c(s1)CC[C@H](NS(C)(=O)=O)[C@@H]2Cc1cccc(-c2ccccc2)c1 (racemic) [Example 17, rac-N-{(4S,5S)-4-[([1,1′-biphenyl]-3-yl)methyl]-2-methyl-4,5,6,7-tetrahydro-1,3-benzothiazol-5-yl}methanesulfonamide]	62%
CCc1cc2n(n1)[C@@H](COC1CCN(c3ncc(F)c(C)n3)CC1)[C@@H](NS(C)(=O)=O)CC2 (racemic) [Example 41, rac-N-[(6S,7R)-2-ethyl-7-({[1-(5-fluoro-4-methylpyrimidin-2-yl)piperidin-4-yl]oxy}methyl)-4,5,6,7-tetrahydropyrazolo[1,5-a]pyridin-6-yl]methanesulfonamide]	80%
Cc1nc2n(n1)C(CO[C@H]1CC[C@@H](c3ccccc3)CC1)C(NS(C)(=O)=O)CC2 (mixture of isomers) [Example 5, rac-N-[(5R,6S)-2-methyl-5-({[(1s,4S)-4-phenylcyclohexyl]oxy}methyl)-5,6,7,8-tetrahydro[1,2,4]triazolo[1,5-a]pyridin-6-yl]methanesulfonamide]	99%
Cc1ccc2c(n1)[C@@H](Cc1cccc(-c3ccccc3)c1)[C@@H](NS(C)(=O)=O)CC2 (racemic) [Example 62, rac-N-{(7S,8S)-8-[([1,1′-biphenyl]-3-yl)methyl]-2-methyl-5,6,7,8-tetrahydroquinolin-7-yl}methanesulfonamide]	72%
CCc1cc2n(n1)[C@@H](COC1CCN(c3ncc(F)cn3)CC1)[C@@H](NS(C)(=O)=O)CC2 (relative stereo) [Example 33, rel-N-[(6S,7R)-2-ethyl-7-({[1-(5-fluoropyrimidin-2-yl)piperidin-4-yl]oxy}methyl)-4,5,6,7-tetrahydropyrazolo[1,5-a]pyridin-6-yl]methanesulfonamide]	91%
CC(O)c1cc2n(n1)C(Cc1cccc(-c3ccccc3)c1)C(NS(C)(=O)=O)CC2 (racemic) [Example 36, N-[(6SR,7SR)-7-[([1,1′-biphenyl]-3-yl)methyl]-2-(1-hydroxyethyl)-4,5,6,7-tetrahydropyrazolo[1,5-a]pyridin-6-yl]methanesulfonamide]	105%
CCc1nn2c(c1Br)CC[C@H](NS(C)(=O)=O)[C@@H]2COC1CCN(c2ncc(F)cn2)CC1 (racemic) [Example 52, rac-N-[(6S,7R)-3-bromo-2-ethyl-7-({[1-(5-fluoropyrimidin-2-yl)piperidin-4-yl]oxy}methyl)-4,5,6,7-tetrahydropyrazolo[1,5-a]pyridin-6-yl]methanesulfonamide]	95%
CC(C)n1cc2c(n1)[C@@H](COC1CCN(c3ncc(F)cn3)CC1)[C@@H](NS(C)(=O)=O)CC2 (racemic) [Example 44, rac-N-[(6S,7S)-7-({[1-(5-fluoropyrimidin-2-yl)piperidin-4-yl]oxy}methyl)-2-(propan-2-yl)-4,5,6,7-tetrahydro-2H-indazol-6-yl]methanesulfonamide]	94%
CC(C)n1cc2c(n1)[C@@H](COC1CCN(c3ncccn3)CC1)[C@@H](NS(C)(=O)=O)CC2 (racemic) [Example 47, rac-N-[(6S,7S)-2-(propan-2-yl)-7-({[1-(pyrimidin-2-yl)piperidin-4-yl]oxy}methyl)-4,5,6,7-tetrahydro-2H-indazol-6-yl]methanesulfonamide]	98%
CC(C)c1cc2n(n1)[C@@H](COC1CCN(c3ncccn3)CC1)[C@@H](NS(C)(=O)=O)CC2 (relative stereo) [Example 56, rel-N-[(6S,7R)-2-(propan-2-yl)-7-({[1-(pyrimidin-2-yl)piperidin-4-yl]oxy}methyl)-4,5,6,7-tetrahydropyrazolo[1,5-a]pyridin-6-yl]methanesulfonamide]	100%
Cc1cc2n(n1)[C@@H](COC1CCN(c3ncccn3)CC1)[C@@H](NS(C)(=O)=O)CC2 (racemic) [Example 3, rac-N-[(6S,7R)-2-methyl-7-({[1-(pyrimidin-2-yl)piperidin-4-yl]oxy}methyl)-4,5,6,7-tetrahydropyrazolo[1,5-a]pyridin-6-yl]methanesulfonamide]	82%
CCc1cc2n(n1)C(CO[C@H]1CC[C@@H](c3ccccc3)CC1)C(NS(C)(=O)=O)CC2 (mixture of isomers) [Example 2, rac-N-[(6S,7R)-2-ethyl-7-({[(1s,4S)-4-phenylcyclohexyl]oxy}methyl)-4,5,6,7-tetrahydropyrazolo[1,5-a]pyridin-6-yl]methanesulfonamide]	107%
CS(=O)(=O)N[C@H]1CCc2ccnn2[C@H]1COC1CCN(c2ncc(F)cn2)CC1 (racemic) [Example 9, rac-N-[(6S,7R)-7-({[1-(5-fluoropyrimidin-2-yl)piperidin-4-yl]oxy}methyl)-4,5,6,7-tetrahydropyrazolo[1,5-a]pyridin-6-yl]methanesulfonamide]	85%
CS(=O)(=O)N[C@H]1CCc2cccnc2[C@H]1Cc1cccc(-c2ccccc2)c1 (racemic) [Example 22, rac-N-{(7S,8S)-8-[([1,1′-biphenyl]-3-yl)methyl]-5,6,7,8-tetrahydroquinolin-7-yl}methanesulfonamide]	63%
